Experimental data taken from article PMC10244465, “Native American ataxia medicines rescue ataxia-linked mutant potassium channel activity via binding to the voltage sensing domain” (Nature Communications, 2023).

How the values were obtained:
[1] = molecular target: T1, Kv1.1/Kv1.1-V408A channels (Homo sapiens, UniProt Q09470, V408A); assay: TEVC of oocytes co-injected with 50/50 wild-type/V408A Kv1.1 cRNA; format: cell-based; settings: for effect on channel activity: compound 1 µM
T1 construct: expressed in transfected cells; host or cells: Xenopus laevis oocytes co-injected with 50/50 wild-type/mutant cRNA
T1 sequence (Q09470 whole entry, stated change not applied): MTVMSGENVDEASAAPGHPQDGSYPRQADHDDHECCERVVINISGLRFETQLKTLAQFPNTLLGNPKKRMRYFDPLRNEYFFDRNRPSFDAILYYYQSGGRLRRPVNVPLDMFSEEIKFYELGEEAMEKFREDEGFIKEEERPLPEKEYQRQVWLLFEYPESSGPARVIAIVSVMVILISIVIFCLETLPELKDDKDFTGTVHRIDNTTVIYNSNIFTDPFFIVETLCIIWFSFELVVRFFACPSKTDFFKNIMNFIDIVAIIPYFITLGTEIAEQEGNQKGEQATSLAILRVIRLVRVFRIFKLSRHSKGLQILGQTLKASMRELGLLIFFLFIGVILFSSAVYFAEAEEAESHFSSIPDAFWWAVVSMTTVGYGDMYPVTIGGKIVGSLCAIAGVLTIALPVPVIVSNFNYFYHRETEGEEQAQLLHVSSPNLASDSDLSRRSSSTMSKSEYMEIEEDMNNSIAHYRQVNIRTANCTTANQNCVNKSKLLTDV
T1 sequence (Q09470 whole entry V408A): as the sequence (Q09470 whole entry, stated change not applied) above, with V408A counted along it
Protocol: We next tested effects on channels generated by co-injection of 50/50 wild-type/mutant Kv1.1 cRNA. Strikingly, gallic acid (1 µM) was able to hyperpolarize (by −15.5 ± 0.5 mV; n = 4; P < 0.0001) the V0.5 act of Kv1.1/Kv1.1-E283K channels, restoring voltage dependence typical of wild-type Kv1.1 (Fig. 7a–c), also inducing a −14 ± 0.7 mV hyperpolarization (n = 4; P = 0.0005) in EM of oocytes expressing Kv1.1/Kv1.1-E283K (Fig. 7d). […] Because of this hint at activity improvement in L155P channels we also applied higher concentrations (10 and 100 µM) of gallic acid, which produced a more robust (−12.5 ± 0.6 mV and −14.1 ± 0.6 mV, respectively) hyperpolarization of Kv1.1/Kv1.1-L155P V0.5 act (Fig. 8b, c) and hyperpolarized EM by −14.0 ± 0.6 mV and −15.2 ± 0.7 mV, respectively (Fig. 8d).
Wild-type and mutant Kv1 cDNAs were generated (Genscript, Piscataway, NJ) in the pTLNx expression vector. As previously described, we generated cRNA transcripts encoding human Kv1.1 (wild-type and mutant) and Kv1.2, by in vitro transcription using the mMessage mMachine kit (Thermo Fisher Scientific), after vector linearization, from cDNA sub-cloned into plasmids (pTLNx) incorporating Xenopus laevis β-globin 5’ and 3’ UTRs flanking the coding region to enhance translation and cRNA stability. […]
(§1) We performed TEVC at room temperature using an OC-725C amplifier (Warner Instruments, Hamden, CT) and pClamp10 software (Molecular Devices, Sunnyvale, CA) 2 days after cRNA injection as described in the section above. […] We recorded currents in response to voltage pulses between −80 mV and +40 mV at 10 or 20 mV intervals from a holding potential of −80 mV, to yield current-voltage relationships and examine activation kinetics. To calculate the voltage dependence of activation (V0.5), tail currents were recorded at a voltage pulse of −50 mV immediately following prepulse voltages between −80 mV and +40 mV. We analyzed data using Clampfit (Molecular Devices) and Graphpad Prism software (GraphPad, San Diego, CA, USA), stating values as mean ± SEM. […]

wild-type human Kv1.2 = molecular target: T2, wild-type human Kv1.2 (Homo sapiens, UniProt P16389); assay: Two-electrode voltage clamp of oocytes expressing wild-type Kv1.2; format: cell-based
T2 construct: expressed in transfected cells; host or cells: Xenopus laevis oocytes injected with cRNA (pTLNx vector)
T2 sequence (P16389 whole entry): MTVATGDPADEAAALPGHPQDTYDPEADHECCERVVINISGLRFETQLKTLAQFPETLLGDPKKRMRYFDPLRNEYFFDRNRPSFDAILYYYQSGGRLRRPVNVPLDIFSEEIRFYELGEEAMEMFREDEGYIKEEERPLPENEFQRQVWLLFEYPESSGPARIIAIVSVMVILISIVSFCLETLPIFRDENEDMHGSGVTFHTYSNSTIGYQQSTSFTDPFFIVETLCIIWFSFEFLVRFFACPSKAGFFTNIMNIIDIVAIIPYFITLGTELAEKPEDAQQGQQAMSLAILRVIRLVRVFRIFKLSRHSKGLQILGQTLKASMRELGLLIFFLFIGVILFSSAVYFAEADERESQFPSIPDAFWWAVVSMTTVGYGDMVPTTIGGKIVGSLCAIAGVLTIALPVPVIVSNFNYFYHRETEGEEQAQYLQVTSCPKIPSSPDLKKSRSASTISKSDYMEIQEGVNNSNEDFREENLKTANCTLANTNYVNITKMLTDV
Protocol: We therefore first tested for activity of extracts (diluted 1:50 in bath solution to equal 5 mg plant solid starting material per ml) of each of the three plants on wild-type human Kv1.1 and closely related Kv1.2 expressed in Xenopus laevis oocytes, using manual two-electrode voltage clamp (TEVC). Strikingly, all three extracts altered Kv1 channel activity. […] Pacific ninebark (roots or leaves) had similar effects on Kv1.1 but negligible effects on Kv1.2.
We purchased live Urtica dioica (Common Nettle) from Crimson Sage Nursery (Orleans, CA, USA), cultivated it in Irvine CA, collected the aerial portions (primarily leaves) and then froze them until the day of extraction. We purchased Physocarpus capitatus (Pacific ninebark) live whole plant from Ozark Wildflower Company (Jasper, AR, USA) and separated the roots and aerial parts before extraction of each. We homogenized plant samples using a bead mill with porcelain beads in batches in 50 ml tubes (Omni International, Kennesaw, GA, United States). We purchased certified organic tree bark powders from Mountain Rose Herbs (Eugene, OR, USA) and dry raw Sophora japonica (fine pellets) from Teriya (People’s Republic of China). We purchased bladderwrack kelp extract capsules from Terra Vita (Brampton, Ontario, Canada) and discarded the outer capsule before extraction. We resuspended all plant powders and homogenates in 80% methanol/20% water (100 ml per 5 g solid) and then incubated for 48 h at room temperature, occasionally inverting the bottles to resuspend the extracts. We next filtered the extracts through Whatman filter paper #1 (Whatman, Maidstone, UK), and then removed the methanol using evaporation in a fume hood for 24–48 h at room temperature. We next centrifuged extracts for 10 min at 15 °C, 4000 RCF to remove the remaining particulate matter, followed by storage at −20 °C. On the day of electrophysiological recording, we thawed the extracts and diluted them 1:50 in bath solution (see below), to equal 5 mg plant solid starting material per ml, immediately before use.
Wild-type and mutant Kv1 cDNAs were generated (Genscript, Piscataway, NJ) in the pTLNx expression vector. […]
as §1, with “mV.” for “mV. We analyzed data using Clampfit (Molecular Devices) and Graphpad Prism software (GraphPad, San Diego, CA, USA), stating values as mean ± SEM.”

tannic acid
effect on channel activity [1]: minimal
EC50 (wild-type human Kv1.2; dose response, Fig. 4, read-out: EC50 for ΔV0.5activation): 253 ± 10 nM

O=C(O)c1cc(O)c(O)c(O)c1 [gallic acid]
effect on channel activity [1]: negligible
EM ([1]; in presence of 1 µM compound): -46.60 ± 0.60 mV
effect on Kv1.2 (wild-type human Kv1.2; compound dose response, Fig. 4a): relatively insensitive
